Like-named read-outs stand apart in the source and are kept apart here.
Key:
[1] = tested on: canine-colonoid-derived monolayers; assay: Bidirectional transport (Papp) across canine-colonoid-derived monolayers; format: in vitro ADME, dog; conditions: for Papp A→B / Papp B→A: Dog colonoid, read-out: Papp × 10^−6; for Papp B→A: BL→AP pH 7.4/7.4, individual wells
Experimental: (§1) After seven days of culture (Figure 3A), the 3D colonoids were harvested from the Matrigel® using the Corning™ cell recovery solution. Matrigel® plugs were dissociated by repeated pipetting after adding 500 μL of pre-chilled cell recovery solution into each well, and the plate was incubated for 30 min at 4 °C to dissolve the Matrigel®. The mixture was then transferred to a 15 mL tube and centrifuged at 100× g for 5 min at 4 °C. The organoid pellet was resuspended in 1 mL TrypLE Express and incubated at 37 °C for 10 min with shaking. To stop the TrypLE action, 6 mL of DMEM/F12 was added to the mixture before centrifugation at 100× g for 5 min at 4 °C. The supernatant was removed, and the pellet was resuspended with CMGF+ media. The harvested colonoid cell suspension was filtered through a sterile cell strainer (40 µm nylon mesh, Thermo Fisher Scientific) to obtain a single-cell suspension. The viability of dissociated cells was assessed by the trypan blue exclusion test [58, 59], and cells were counted manually using a hemocytometer (Hausser Scientific, Horsham, PA, USA). The Transwell™ inserts were pre-coated with Matrigel® (100 μg/mL; Corning®) and rat tail collagen I (30 μg/mL; Fisher Scientific) to promote adhesion, growth, and differentiation in CMGF+ media at 37 °C for 1 h. Dissociated colonoid cells (Passages #15–20) were seeded at a density of 100,000 cells/cm^2 in pre-coated inserts and allowed to grow and differentiate in the presence of CMGF+ media for 10 to 12 days before the experiments (Figure 3B). The CMGF+ culture medium was changed every other day. The structural integrity of the cell monolayer was monitored every other day for up to two weeks by phase-contrast microscopy.
(§2) All transport experiments were conducted at room temperature following the conditions outlined in earlier reports during sampling and incubation [66, 67, 68]. The culture media were aspirated from both AP (0.2 mL) and BL (0.7 mL) chambers. For both the canine colonoid and the Caco-2 monolayer, the BL chambers with HBSS buffer at pH 7.4 (0.7 mL) and the AP chambers with appropriate HBSS buffer at pH 6.8 or 7.4 (0.2 mL) (canine) or pH 6.8 (0.2 mL) (Caco-2 cells) were rinsed and equilibrated at room temperature for 30 min. Two to three wells per drug/pH/direction were used for data generation.
(§3) After Caco-2 and canine colonoid monolayers were equilibrated in the transport buffer for 30 min, the buffer was aspirated from the AP (0.2 mL) and BL (0.7 mL) chambers. The media of the AP chamber were replaced with 0.2 mL of the drug solution prepared in an appropriate transport buffer. HBSS buffer with pH 7.4 was added to the BL chambers. At pre-defined time points (15, 30, 45, 60, 90, and 120 min), samples of 100 µL buffer were collected from the receiver chamber (BL) and replaced with the same volume (i.e., 100 µL) of transport buffer at pH 7.4. For the AP side, drug concentrations of the donor solution were measured prior to introduction into the well and at the end of the study (120 min). In so doing, no buffer replacement was needed. All study samples were labeled and stored at −80 °C until further analysis.
(§4) The same procedures described above for studying AP→BL permeability were followed when studying BL→AP, with the only difference being that the donor chamber was now the BL side and the receiver chamber was now the AP side. At pre-determined time intervals (15, 30, 45, 60, 90, and 120 min), 100 µL of buffer was removed from the receiver chamber (AP) and replaced with the same volume (i.e., 100 µL) of transport buffer with the specified pH. The collected samples were stored at −80 °C until further analysis by mass spectrometry (details below).

[2] = low permeability, high solubility; cited from earlier work
[3] = Bidirectional transport (Papp) across Caco-2 cell monolayers; format: in vitro ADME, human; conditions: human; for Papp A→B at 120 min, 0.04 mg/mL: Caco-2, pH 6.8, 0.04 mg/mL (58.4 μM); for Papp A→B at 120 min, 0.4 mg/mL: Caco-2, pH 6.8, 0.4 mg/mL (584.1 μM); for Papp B→A at 120 min, 0.04 mg/mL: Caco-2, pH 7.4, 0.04 mg/mL (58.4 μM); for Papp B→A at 120 min, 0.4 mg/mL: Caco-2, pH 7.4, 0.4 mg/mL (584.1 μM); for Papp A→B at 120 min, 1 mg/mL: Caco-2, pH 6.8, 1 mg/mL (3380 μM); for Papp B→A at 120 min, 1 mg/mL: Caco-2, pH 7.4, 1 mg/mL (3380 μM)
Experimental: (§5) The harvested Caco-2 cell suspension was then filtered through a sterile cell strainer (40 µm nylon mesh, Thermo Fisher Scientific) to obtain a single-cell suspension. Caco-2 cell viability and concentration were determined by a trypan blue exclusion test [57, 58]. Single Caco-2 cells (passages 50–55) were seeded at a density of 75,000 cells/cm^2 in the apical chamber of the insert and cultured in CCCM media. The culture medium in both apical and basolateral chambers was changed every other day. In the transport studies, the monolayers were utilized 18 to 20 days after plating.
as §2, §3, §4
(§6) The uncorrected Papp estimates for the three drugs of interest (Papp-uncorrected, cm/s) were calculated as follows (Equation (2)) [7]: (2) Papp-uncorrected =VR/(A×C0)×dC/dt where VR is the volume in the receiver chamber (mL), A is the surface area of the filter ( 0.33 cm^2 ), C0 is the initial drug concentration (µM) in the donor chamber, and dC/dt is the maximum slope of the line defining the cumulative drug concentration (mg/mL) vs. time (min) in the receiver compartment. […] The estimated concentrations in the receiver compartment were corrected for drug removed during prior samples.
(§7) These Papp value estimates were further corrected for the percent recovery (Rec (%)) in each well [71, 72] as follows (Equation (3)): (3) Rec (%) =mg donor hr 2+total mg receiver hr 2/mg drug introduced into the donor compartment at hr 0
(§8) The corrected Papp estimates reported herein were, therefore, calculated as follows (Equation (4)):(4) Papp= Papp−uncorrected /Rec (%)

[4] = tested on: Caco-2 cell monolayers; assay: as above; format: in vitro ADME, human
Experimental: as §5, §2, §3, §4, §6, §7, §8

[5] = Bidirectional transport (Papp) across canine-colonoid-derived monolayers; format: in vitro ADME, dog; conditions: dog, Dog colonoid
Experimental: as §1, §2, §3, §4

[6] = design: method as in earlier work; conditions: ref 65 (PubChem), cited from earlier work
[7] = tested on: P-gp; conditions: cited from earlier work
[8] = Human Caco-2, AP→BL pH 6.8/7.4, N = 2, read-out: Papp × 10^−6 Avg
[9] = Human Caco-2, AP→BL pH 6.8/7.4, individual wells, read-out: Papp × 10^−6
[10] = Human Caco-2, BL→AP pH 7.4/7.4, N = 2, read-out: Papp × 10^−6 Avg
[11] = Human Caco-2, BL→AP pH 7.4/7.4, individual wells, read-out: Papp × 10^−6

CC(C)NCC(O)COc1ccc(CC(N)=O)cc1 (centres unmarked) [Atenolol]
drug in the receiver compartment ([1]; 2.0 mg/mL, canine colonoids, irrespective of pH or direction (AP→BL or BL→AP)): not detectable
BCS Class [2]: Class III

COCCc1ccc(OCC(O)CNC(C)C)cc1 (centres unmarked) [Metoprolol]
Papp A→B at 120 min, 0.04 mg/mL [3, 8]: 15.3 ×10⁻⁶ cm/s
Papp A→B at 120 min, 0.04 mg/mL [3, 9]: 17.5 ×10⁻⁶ cm/s
Papp A→B at 120 min, 0.4 mg/mL [3, 8]: 17.9 ×10⁻⁶ cm/s
Papp A→B at 120 min, 0.4 mg/mL [3, 9]: 19.3 ×10⁻⁶ cm/s
Papp B→A at 120 min, 0.04 mg/mL [3, 10]: 17.7 ×10⁻⁶ cm/s
Papp B→A at 120 min, 0.04 mg/mL [3, 11]: 16.3 ×10⁻⁶ cm/s
Papp B→A at 120 min, 0.4 mg/mL [3, 10]: 13.1 ×10⁻⁶ cm/s
Papp B→A at 120 min, 0.4 mg/mL [3, 11]: 13.8 ×10⁻⁶ cm/s
Papp × 10^−6 ([4]; 0.04 mg/mL (58.4 μM), Human Caco-2, AP→BL pH 6.8/7.4, individual wells): 13.13 × 10^−6 cm/s
Papp × 10^−6 ([4]; 0.04 mg/mL (58.4 μM), Human Caco-2, BL→AP pH 7.4/7.4, individual wells): 19.03 × 10^−6 cm/s
Papp × 10^−6 ([4]; 0.4 mg/mL (584.1 μM), Human Caco-2, AP→BL pH 6.8/7.4, individual wells): 16.45 × 10^−6 cm/s
Papp × 10^−6 ([4]; 0.4 mg/mL (584.1 μM), Human Caco-2, BL→AP pH 7.4/7.4, individual wells): 12.37 × 10^−6 cm/s
Papp A→B at 120 min, 0.04 mg/mL ([5]; pH 6.8, 0.04 mg/mL (58.4 μM), AP→BL pH 6.8/7.4, N = 2, read-out: Papp × 10^−6 Avg): 17.7 ×10⁻⁶ cm/s
Papp A→B at 120 min, 0.04 mg/mL ([5]; pH 6.8, 0.04 mg/mL (58.4 μM), AP→BL pH 6.8/7.4, individual wells, read-out: Papp × 10^−6): 16.8 ×10⁻⁶ cm/s
Papp A→B at 120 min, 0.4 mg/mL ([5]; pH 6.8, 0.4 mg/mL (584.1 μM) ± FITC-dextran 200 µg/mL, AP→BL pH 6.8/7.4, individual wells, read-out: Papp × 10^−6): 8.33 ×10⁻⁶ cm/s
Papp A→B at 120 min, 0.4 mg/mL ([5]; pH 6.8, 0.4 mg/mL (584.1 μM) ± FITC-dextran 200 µg/mL, AP→BL pH 6.8/7.4, read-out: Papp × 10^−6 Avg): 8.72 ×10⁻⁶ cm/s
Papp A→B at 120 min, 0.04 mg/mL ([5]; pH 7.4, 0.04 mg/mL (58.4 μM), AP→BL pH 7.4/7.4, N = 2, read-out: Papp × 10^−6 Avg): 13.5 ×10⁻⁶ cm/s
Papp A→B at 120 min, 0.04 mg/mL ([5]; pH 7.4, 0.04 mg/mL (58.4 μM), AP→BL pH 7.4/7.4, individual wells, read-out: Papp × 10^−6): 13.4 ×10⁻⁶ cm/s
Papp B→A at 120 min, 0.04 mg/mL ([5]; pH 7.4, 0.04 mg/mL (58.4 μM), BL→AP pH 7.4/7.4, N = 2, read-out: Papp × 10^−6 Avg): 11.9 ×10⁻⁶ cm/s
Papp B→A at 120 min, 0.04 mg/mL ([5]; pH 7.4, 0.04 mg/mL (58.4 μM), BL→AP pH 7.4/7.4, individual wells, read-out: Papp × 10^−6): 11.2 ×10⁻⁶ cm/s
Papp A→B at 120 min, 0.4 mg/mL ([5]; pH 7.4, 0.4 mg/mL (584.1 μM) ± FITC-dextran 200 µg/mL, AP→BL pH 7.4/7.4, individual wells, read-out: Papp × 10^−6): 9.9 ×10⁻⁶ cm/s
Papp A→B at 120 min, 0.4 mg/mL ([5]; pH 7.4, 0.4 mg/mL (584.1 μM) ± FITC-dextran 200 µg/mL, AP→BL pH 7.4/7.4, read-out: Papp × 10^−6 Avg): 10.5 ×10⁻⁶ cm/s
Papp B→A at 120 min, 0.4 mg/mL ([5]; pH 7.4, 0.4 mg/mL (584.1 μM) ± FITC-dextran 200 µg/mL, BL→AP pH 7.4/7.4, individual wells, read-out: Papp × 10^−6): 9.88 ×10⁻⁶ cm/s
Papp B→A at 120 min, 0.4 mg/mL ([5]; pH 7.4, 0.4 mg/mL (584.1 μM) ± FITC-dextran 200 µg/mL, BL→AP pH 7.4/7.4, read-out: Papp × 10^−6 Avg): 9.91 ×10⁻⁶ cm/s
Papp A→B ([1]; 0.04 mg/mL (58.4 μM), AP→BL pH 6.8/7.4, individual wells): 18.5 ×10⁻⁶ cm/s
Papp A→B ([1]; 0.04 mg/mL (58.4 μM), AP→BL pH 7.4/7.4, individual wells): 13.5 ×10⁻⁶ cm/s
Papp B→A ([1]; 0.04 mg/mL (58.4 μM)): 12.7 ×10⁻⁶ cm/s
Papp A→B ([1]; 0.4 mg/mL (584.1 μM) ± FITC-dextran 200 µg/mL, AP→BL pH 6.8/7.4, individual wells): 9.1 ×10⁻⁶ cm/s
Papp A→B ([1]; 0.4 mg/mL (584.1 μM) ± FITC-dextran 200 µg/mL, AP→BL pH 7.4/7.4, individual wells): 11.2 ×10⁻⁶ cm/s
Papp B→A ([1]; 0.4 mg/mL (584.1 μM) ± FITC-dextran 200 µg/mL): 9.94 ×10⁻⁶ cm/s
Aqueous Solubility (25 °C) ([6]; 25 °C): >1000 mg/mL
Log P [6]: 2.15
P-gp substrate status [7]: not a substrate for P-gp transport

CC(C)NCC(O)COc1cccc2ccccc12 (centres unmarked) [Propranolol]
Papp A→B at 120 min, 1 mg/mL [3, 8]: 12.4 ×10⁻⁶ cm/s
Papp A→B at 120 min, 1 mg/mL [3, 9]: 12.1 ×10⁻⁶ cm/s
Papp B→A at 120 min, 1 mg/mL [3, 10]: 11.9 ×10⁻⁶ cm/s
Papp B→A at 120 min, 1 mg/mL [3, 11]: 11.4 ×10⁻⁶ cm/s
Papp × 10^−6 ([4]; 1 mg/mL (3380 μM), Human Caco-2, AP→BL pH 6.8/7.4, individual wells): 12.75 × 10^−6 cm/s
Papp × 10^−6 ([4]; 1 mg/mL (3380 μM), Human Caco-2, BL→AP pH 7.4/7.4, individual wells): 12.43 × 10^−6 cm/s
Papp A→B at 120 min, 1 mg/mL ([5]; pH 6.8, 1 mg/mL (3380 μM), AP→BL pH 6.8/7.4, N = 2, read-out: Papp × 10^−6 Avg): 11.6 ×10⁻⁶ cm/s
Papp A→B at 120 min, 1 mg/mL ([5]; pH 6.8, 1 mg/mL (3380 μM), AP→BL pH 6.8/7.4, individual wells, read-out: Papp × 10^−6): 12.2 ×10⁻⁶ cm/s
Papp A→B at 120 min, 1 mg/mL ([5]; pH 7.4, 1 mg/mL (3380 μM), AP→BL pH 7.4/7.4, N = 2, read-out: Papp × 10^−6 Avg): 12 ×10⁻⁶ cm/s
Papp A→B at 120 min, 1 mg/mL ([5]; pH 7.4, 1 mg/mL (3380 μM), AP→BL pH 7.4/7.4, individual wells, read-out: Papp × 10^−6): 12 ×10⁻⁶ cm/s
Papp B→A at 120 min, 1 mg/mL ([5]; pH 7.4, 1 mg/mL (3380 μM), BL→AP pH 7.4/7.4, N = 2, read-out: Papp × 10^−6 Avg): 11.5 ×10⁻⁶ cm/s
Papp B→A at 120 min, 1 mg/mL ([5]; pH 7.4, 1 mg/mL (3380 μM), BL→AP pH 7.4/7.4, individual wells, read-out: Papp × 10^−6): 10.9 ×10⁻⁶ cm/s
Papp A→B ([1]; 1 mg/mL (3380 μM), AP→BL pH 6.8/7.4, individual wells): 11.1 ×10⁻⁶ cm/s
Papp A→B ([1]; 1 mg/mL (3380 μM), AP→BL pH 7.4/7.4, individual wells): 12 ×10⁻⁶ cm/s
Papp B→A ([1]; 1 mg/mL (3380 μM)): 12 ×10⁻⁶ cm/s

From publication PMC10177590, “Canine Intestinal Organoids as a Novel In Vitro Model of Intestinal Drug Permeability: A Proof-of-Concept Study” (Cells, 2023)
